For the assay, the target named is T1, recombinant human PLK1[2-369]T210D (Homo sapiens, UniProt P53350, T210D).
T1 construct: recombinant human PLK1[2-369]T210D; Smt (SUMO) fusion partner (N, cleaved yes); host or cells: E. coli
T1 sequence (P53350 2-369 T210D): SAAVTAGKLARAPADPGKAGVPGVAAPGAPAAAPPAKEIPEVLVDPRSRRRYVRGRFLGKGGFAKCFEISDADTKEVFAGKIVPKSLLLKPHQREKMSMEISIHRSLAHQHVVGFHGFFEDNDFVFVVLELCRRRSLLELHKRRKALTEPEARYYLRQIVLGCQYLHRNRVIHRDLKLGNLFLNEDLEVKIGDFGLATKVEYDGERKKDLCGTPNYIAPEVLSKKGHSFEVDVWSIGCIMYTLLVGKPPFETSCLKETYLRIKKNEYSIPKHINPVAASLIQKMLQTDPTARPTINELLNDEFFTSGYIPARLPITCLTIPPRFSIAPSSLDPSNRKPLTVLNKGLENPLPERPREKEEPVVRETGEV
As to the kind of experiment: PLK1 DELFIA Kinase Assay. The format is biochemical. The conditions noted are these: 50 μM ATP, 2 μM peptide substrate, 0.3 nM enzyme, 90 minutes at room temperature. The procedure: Recombinant human PLK1 was expressed in E. coli as an N-terminal Smt fusion protein using a proprietary vector (pSGX4) by Structural Genomics (SGX). The fusion partner was removed through cleavage with Ulp1 after an initial purification using a Ni2+ affinity column.
PLK1 DELFIA® Kinase Assay
The enzymatic reaction mixture, with or without PLK inhibitors, was incubated 90 minutes at room temperature before termination with 50 μL of STOP buffer containing 1% BSA, 0.05% Tween20, 100 mM EDTA. 50 μL of the stopped enzyme reaction mixture was transferred to a Neutravidin-coated 384-well plate (Pierce) and incubated at room temperature for 60 minutes. […] The wells were washed and then the bound europium was liberated using 50 μL of Enhancement Solution (Perkin Elmer). Quantification of europium was done using a Pherastar (BMG Labtech)
As for `COc1ccc2c(c1)NC(=S)Cc1cnc(Nc3cc(CCCN(C)C)cnc3C)nc1-2` [Compound I-1, 2-({5-[3-(dimethylamino)propyl]-2-methylpyridin-3-yl}amino)-9-methoxy-5,7-dihydro-6H-pyrimido[5,4-d][1]benzazepine-6-thione], the IC50 – broadly, the concentration at which inhibition is half-maximal – is below 5 nM.
On to `CCN1CCN(c2cnc(C)c(Nc3ncc4c(n3)-c3ccc(C(F)(F)F)cc3NC(=S)C4)c2)C[C@@H]1C` [Compound I-2, 2-({5-[(3S)-4-ethyl-3-methylpiperazin-1-yl]-2-methylpyridin-3-yl}amino)-9-(trifluoromethyl)-5,7-dihydro-6H-pyrimido[5,4-d][1]benzazepine-6-thione], for which the IC50 was below 5 nM.
For `Cc1nc(N(C)C2CCN(C)C2)ccc1Nc1ncc2c(n1)-c1ccc(Cl)cc1NC(=S)C2` (stereo not shown) [Compound I-3, 9-chloro-2-({2-methyl-6-[methyl(1-methylpyrrolidin-3-yl)amino]pyridin-3-yl}amino)-5,7-dihydro-6H-pyrimido[5,4-d][1]benzazepine-6-thione], the IC50 is 5 to 25 nM.
The value for `Cc1ccc(Nc2ncc3c(n2)-c2ccc(C(F)(F)F)cc2NC(=S)C3)c(C)n1` [Compound I-4, 2-[(2,6-dimethylpyridin-3-yl)amino]-9-(trifluoromethyl)-5,7-dihydro-6H-pyrimido[5,4-d][1]benzazepine-6-thione] was below 5 nM.
Consider `CCc1ccc2c(c1)NC(=S)Cc1cnc(Nc3cc(CCCN(C)C)cnc3C)nc1-2` [Compound I-5, 2-({5-[3-(dimethylamino)propyl]-2-methylpyridin-3-yl}amino)-9-ethyl-5,7-dihydro-6H-pyrimido[5,4-d][1]benzazepine-6-thione], for which the IC50 was below 5 nM.
The value for `Cc1ncc(CCN2CCN(C)CC2)cc1Nc1ncc2c(n1)-c1ccc(Cl)cc1NC(=S)C2` [Compound I-6, 9-chloro-2-({2-methyl-5-[2-(4-methylpiperazin-1-yl)ethyl]pyridin-3-yl}amino)-5,7-dihydro-6H-pyrimido[5,4-d][1]benzazepine-6-thione] was below 5 nM.
Next, `Cc1nc(N2CCCC(N(C)C)C2)ccc1Nc1ncc2c(n1)-c1ccc(Cl)cc1NC(=S)C2` (stereo not shown) [Compound I-7, 9-chloro-2-({6-[3-(dimethylamino)piperidin-1-yl]-2-methylpyridin-3-yl}amino)-5,7-dihydro-6H-pyrimido[5,4-d][1]benzazepine-6-thione]: below 5 nM; `COc1ncc(Nc2ncc3c(n2)-c2ccc(Cl)cc2NC(=S)C3)cc1CCCN(C)C` [Compound I-8, 9-chloro-2-({5-[3-(dimethylamino)propyl]-6-methoxypyridin-3-yl}amino)-5,7-dihydro-6H-pyrimido[5,4-d][1]benzazapine-6-thione]: below 5 nM; `Cc1nc(N2CCCC(N(C)C)C2)ccc1Nc1ncc2c(n1)-c1ccc(C(F)(F)F)cc1NC(=S)C2` (stereo not shown) [Compound I-9, 2-({6-[3-(dimethylamino)piperidin-1-yl]-2-methylpyridin-3-yl}amino)-9-(trifluoromethyl)-5,7-dihydro-6H-pyrimido[5,4-d][1]benzazepine-6-thione]: below 5 nM.
Next, `Cc1ncc(CCN2C[C@@H](C)O[C@H](C)C2)cc1Nc1ncc2c(n1)-c1ccc(Cl)cc1NC(=S)C2` [Compound I-10]: below 5 nM.
On to `CCN1CCN(c2cncc(Nc3ncc4c(n3)-c3ccc(Cl)cc3NC(=S)C4)c2)C[C@@H]1C` [Compound I-11, 9-chloro-2-({5-[(3S)-4-ethyl-3-methylpiperazin-1-yl]pyridin-3-yl}amino)-5,7-dihydro-6H-pyrimido[5,4-d][1]benzazepine-6-thione], for which the IC50 is below 5 nM.
On to `Cc1ncc(CCCCN(C)C)cc1Nc1ncc2c(n1)-c1ccc(C(F)(F)F)cc1NC(=S)C2` [Compound I-12, 2-({5-[4-(dimethylamino)butyl]-2-methylpyridin-3-yl}amino)-9-(trifluoromethyl)-5,7-dihydro-6H-pyrimido[5,4-d][1]benzazepine-6-thione], for which the 50% inhibitory concentration (IC50) was below 5 nM.
Next, `S=C1Cc2cnc(Nc3ccc(N4CCOCC4)nc3)nc2-c2ccc(Cl)cc2N1` [Compound I-13, 9-chloro-2-[(6-morpholin-4-ylpyridin-3-yl)amino]-5,7-dihydro-6H-pyrimido[5,4-d][1]benzazepine-6-thione]: below 5 nM.
Turning to `Cc1ncc(C2CCN(C)CC2)cc1Nc1ncc2c(n1)-c1ccc(Cl)cc1NC(=S)C2` [Compound I-14, 9-chloro-2-{[2-methyl-5-(1-methylpiperidin-4-yl)pyridin-3-yl]amino}-5,7-dihydro-6H-pyrimido[5,4-d][1]benzazepine-6-thione], the IC50 is below 5 nM.
Consider `Cc1ncc(CCN2CCC(N(C)C)C2)cc1Nc1ncc2c(n1)-c1ccc(Cl)cc1NC(=S)C2` (stereo not shown) [Compound I-15, 9-chloro-2-[(5-{2-[3-(dimethylamino)pyrrolindin-1-yl]ethyl}-2-methylpridin-3-yl)amino]-5,7-dihydro-6H-pyrimido[5,4-d][1]benzazepine-6-thione], for which the IC50 was below 5 nM.
The value for `Cc1nc(CCCN(C)C)ccc1Nc1ncc2c(n1)-c1ccc(Cl)cc1NC(=S)C2` [Compound I-16, 9-chloro-2-({6-[3-(dimethylamino)propyl]-2-methylpyridin-3-yl}amino)-5,7-dihydro-6H-pyrimido[5,4-d][1]benzazepine-6-thione] was 5 to 25 nM; that for `CCN1CCC(c2cnc(C)c(Nc3ncc4c(n3)-c3ccc(Cl)cc3NC(=S)C4)c2)CC1` [Compound I-17, 9-chloro-2-{[5-(1-ethylpiperidin-4-yl)-2-methylpyridin-3-yl]amino}-5,7-dihydro-6H-pyrimido[5,4-d][1]benzazepine-6-thione] was below 5 nM.
Next, `Cc1nc(NC2CCOCC2)ccc1Nc1ncc2c(n1)-c1ccc(C(F)(F)F)cc1NC(=S)C2` [Compound I-18, 2-{[2-methyl-6-(tetrahydro-2H-pyran-4-ylamino)pyridin-3-yl]amino}-9-(trifluoromethyl)-5,7-dihydro-6H-pyrimido[5,4-d][1]benzazepine-6-thione]: below 5 nM; `Cc1nc(NC2CCOCC2)ccc1Nc1ncc2c(n1)-c1ccc(Cl)cc1NC(=S)C2` [Compound I-19, 9-chloro-2-{[2-methyl-6-(tetrahydro-2H-pyran-4-ylamino)pyridin-3-yl]amino}-5,7-dihydro-6H-pyrimido[5,4-d][1]benzazepine-6-thione]: below 5 nM.
Turning to `Cc1nc(C(=O)NCCN2CCOCC2)ccc1Nc1ncc2c(n1)-c1ccc(C(F)(F)F)cc1NC(=S)C2` [Compound I-21], the 50% inhibitory concentration (IC50) was below 5 nM.
As for `Cc1nc(NC2CCN(C)CC2)ccc1Nc1ncc2c(n1)-c1ccc(Cl)cc1NC(=S)C2` [Compound I-22, 9-chloro-2-({2-methyl-6-[(1-methylpiperidin-4-yl)amino]pyridin-3-yl}amino)-5,7-dihydro-6H-pyrimido[5,4-d][1]benzazepine-6-thione], the 50% inhibitory concentration (IC50) was below 5 nM.
The value for `Cc1nc(NCCCN(C)C)ccc1Nc1ncc2c(n1)-c1ccc(C(F)(F)F)cc1NC(=S)C2` [Compound I-23, 2-[(6-{[3-(dimethylamino)propyl]amino}-2-methylpyridin-3-yl)amino]-9-(trifluoromethyl)-5,7-dihydro-6H-pyrimido[5,4-d][1]benzazepine-6-thione] was below 5 nM.

The values above are taken from US7998952B2, “Thiolactams and uses thereof” (Millennium Pharmaceuticals, Inc., priority 2008, dated 2011).
